# In ChEMBL document CHEMBL1151433, “National and regional assessment of antimicrobial resistance among community-acquired respiratory tract pathogens identified in a 2005-2006 U.S. Faropenem surveillance study” (2007):
# Legend:
# [1] = tested on: Streptococcus pneumoniae; experiment: Antibacterial activity against Streptococcus pneumoniae ATCC 49619 isolated from respiratory tract infected patients after 20 to 24 hrs by broth microdilution method; type: functional
# [2] = tested on: Streptococcus pneumoniae; experiment: Antibacterial activity against penicillin-susceptible Streptococcus pneumoniae ATCC 49619 isolated from respiratory tract infected patients after 20 to 24 hrs by broth microdilution method; type: functional
# [3] = tested on: Streptococcus pneumoniae; experiment: Antibacterial activity against penicillin-intermediate Streptococcus pneumoniae ATCC 49619 isolated from respiratory tract infected patients after 20 to 24 hrs by broth microdilution method; type: functional
# [4] = tested on: Streptococcus pneumoniae; experiment: Antibacterial activity against penicillin-resistant Streptococcus pneumoniae ATCC 49619 isolated from respiratory tract infected patients after 20 to 24 hrs by broth microdilution method; type: functional
# [5] = tested on: Streptococcus pneumoniae; experiment: Antibacterial activity against Streptococcus pneumoniae ATCC 49619 isolated from respiratory tract infected patients assessed as susceptible isolates after 20 to 24 hrs by broth microdilution method; type: functional
# [6] = tested on: Streptococcus pneumoniae; experiment: Antibacterial activity against penicillin-susceptible Streptococcus pneumoniae ATCC 49619 isolated from respiratory tract infected patients assessed as susceptible isolates after 20 to 24 hrs by broth microdilution method; type: functional
# [7] = tested on: Streptococcus pneumoniae; experiment: Antibacterial activity against penicillin-intermediate Streptococcus pneumoniae ATCC 49619 isolated from respiratory tract infected patients assessed as susceptible isolates after 20 to 24 hrs by broth microdilution method; type: functional
# [8] = tested on: Streptococcus pneumoniae; experiment: Antibacterial activity against penicillin-resistant Streptococcus pneumoniae ATCC 49619 isolated from respiratory tract infected patients assessed as susceptible isolates after 20 to 24 hrs by broth microdilution method; type: functional
# [9] = tested on: Streptococcus pneumoniae; experiment: Antibacterial activity against Streptococcus pneumoniae ATCC 49619 isolated from respiratory tract infected patients assessed as resistant isolates after 20 to 24 hrs by broth microdilution method; type: functional
# [10] = tested on: Streptococcus pneumoniae; experiment: Antibacterial activity against penicillin-susceptible Streptococcus pneumoniae ATCC 49619 isolated from respiratory tract infected patients assessed as resistant isolates after 20 to 24 hrs by broth microdilution method; type: functional
# [11] = tested on: Streptococcus pneumoniae; experiment: Antibacterial activity against penicillin-intermediate Streptococcus pneumoniae ATCC 49619 isolated from respiratory tract infected patients assessed as resistant isolates after 20 to 24 hrs by broth microdilution method; type: functional
# [12] = tested on: Streptococcus pneumoniae; experiment: Antibacterial activity against penicillin-resistant Streptococcus pneumoniae ATCC 49619 isolated from respiratory tract infected patients assessed as resistant isolates after 20 to 24 hrs by broth microdilution method; type: functional
# [13] = tested on: Haemophilus influenzae; experiment: Antibacterial activity against Haemophilus influenzae […] isolated from respiratory tract infected patients after 20 to 24 hrs by broth microdilution method; type: functional; settings: ATCC 49247
# [14] = tested on: Haemophilus influenzae; experiment: Antibacterial activity against beta lactamase-positive Haemophilus influenzae […] isolated from respiratory tract infected patients after 20 to 24 hrs by broth microdilution method; type: functional; settings: ATCC 49247
# [15] = tested on: Haemophilus influenzae; experiment: Antibacterial activity against beta lactamase-negative Haemophilus influenzae […] isolated from respiratory tract infected patients after 20 to 24 hrs by broth microdilution method; type: functional; settings: ATCC 49247
# [16] = tested on: Haemophilus influenzae; experiment: Antibacterial activity against Haemophilus influenzae […] isolated from respiratory tract infected patients assessed as susceptible isolates after 20 to 24 hrs by broth microdilution method; type: functional, ATCC 49247
# [17] = tested on: Haemophilus influenzae; experiment: Antibacterial activity against beta lactamase-positive Haemophilus influenzae […] isolated from respiratory tract infected patients assessed as susceptible isolates after 20 to 24 hrs by broth microdilution method; type: functional, ATCC 49247
# [18] = tested on: Haemophilus influenzae; experiment: Antibacterial activity against beta lactamase-negative Haemophilus influenzae […] isolated from respiratory tract infected patients assessed as susceptible isolates after 20 to 24 hrs by broth microdilution method; type: functional
# [19] = tested on: Haemophilus influenzae; experiment: Antibacterial activity against Haemophilus influenzae […] isolated from respiratory tract infected patients assessed as resistant isolates after 20 to 24 hrs by broth microdilution method; type: functional, ATCC 49247
# [20] = tested on: Haemophilus influenzae; experiment: Antibacterial activity against beta lactamase-positive Haemophilus influenzae […] isolated from respiratory tract infected patients assessed as resistant isolates after 20 to 24 hrs by broth microdilution method; type: functional, ATCC 49247
# [21] = tested on: Haemophilus influenzae; experiment: Antibacterial activity against beta lactamase-negative Haemophilus influenzae […] isolated from respiratory tract infected patients assessed as resistant isolates after 20 to 24 hrs by broth microdilution method; type: functional, ATCC 49247
# [22] = tested on: Moraxella catarrhalis; experiment: Antibacterial activity against Moraxella catarrhalis isolated from respiratory tract infected patients after 20 to 24 hrs by broth microdilution method; type: functional
SMILES,MIC50 [1],MIC90 [1],MIC50 [2],MIC90 [2],MIC50 [3],MIC90 [3],MIC50 [4],MIC90 [4],Activity [5],Activity [6],Activity [7],Activity [8],Activity [9],Activity [10],Activity [11],Activity [12],MIC50 [13],MIC90 [13],MIC50 [14],MIC90 [14],other results
CO/N=C(\C(=O)N[C@@H]1C(=O)N2C(C(=O)O)=C(COC(N)=O)CS[C@H]12)c1ccco1 [CEFUROXIME],≤ 0.5 µg/mL,8 µg/mL,≤ 0.5 µg/mL,≤ 0.5 µg/mL,≤ 0.5 µg/mL,4 µg/mL,8 µg/mL,16 µg/mL,78.2%,99.9%,74%,0%,18.7%,0%,12.7%,99.2%,1 µg/mL,2 µg/mL,1 µg/mL,2 µg/mL,MIC50 [15]: 1 µg/mL; MIC90 [15]: 2 µg/mL; Activity [16]: 97.6%; Activity [17]: 96.3%; Activity [18]: 98%; Activity [19]: 0.3%; Activity [20]: 0.7%; Activity [21]: 0.2%; MIC50 [22]: 1 µg/mL; MIC90 [22]: 2 µg/mL
CC[C@H]1OC(=O)[C@H](C)C(=O)[C@H](C)[C@@H](O[C@@H]2O[C@H](C)C[C@H](N(C)C)[C@H]2O)[C@](C)(OC)C[C@@H](C)C(=O)[C@H](C)[C@H]2N(CCCCn3cnc(-c4cccnc4)c3)C(=O)O[C@]12C [TELITHROMYCIN],≤ 0.12 µg/mL,0.5 µg/mL,≤ 0.12 µg/mL,≤ 0.12 µg/mL,≤ 0.12 µg/mL,0.5 µg/mL,0.5 µg/mL,1 µg/mL,99.4%,99.8%,100%,97.2%,0.1%,0.1%,0%,0%,2 µg/mL,4 µg/mL,2 µg/mL,4 µg/mL,MIC50 [15]: 2 µg/mL; MIC90 [15]: 4 µg/mL; Activity [16]: 96.4%; Activity [17]: 97%; Activity [18]: 96.1%; Activity [19]: 0.7%; Activity [20]: 0.8%; Activity [21]: 0.7%; MIC50 [22]: ≤ 0.12 µg/mL; MIC90 [22]: ≤ 0.12 µg/mL
